{"source": "paper PMC9150124", "about": "“Design of a Potent, Selective, and Brain-Penetrant Inhibitor of Wnt-Deactivating Enzyme Notum by Optimization of a Crystallographic Fragment Hit” (Journal of Medicinal Chemistry, 2022)", "assay_in_all_cases": "SelectScreen kinase profiling, SSBK ZLyte SP Technology", "format_in_all_cases": "biochemical", "key": {"[1]": {"target": "kinase named in conditions (Homo sapiens, UniProt P49840)", "details": "GSK3A (GSK3 alpha), 10 μM", "method": "(§1) Kinase selectivity screening was performed by Thermo Fisher Scientific (Paisley, U.K.) in their SelectScreen Biochemical Kinase Profiling Service. Assay information and data are presented in the Supporting Information.\n(§2) Kinase selectivity screening was performed by ThermoFisher Scientific (Paisley, U.K.) in their SelectScreenTM\n(§3) Biochemical Kinase Profiling service ."}, "[2]": {"target": "kinase named in conditions (Homo sapiens, UniProt Q8IU85)", "details": "CAMK1D (CaMKI delta), 10 μM", "method": "as §1, §2, §3"}, "[3]": {"target": "kinase named in conditions (Homo sapiens, UniProt O96017)", "details": "CHEK2 (CHK2), 10 μM", "method": "as §1, §2, §3"}, "[4]": {"target": "kinase named in conditions (Homo sapiens, UniProt Q13976)", "details": "PRKG1, 10 μM", "method": "as §1, §2, §3"}, "[5]": {"target": "kinase named in conditions (Homo sapiens, UniProt P08069)", "details": "IGF1R, 10 μM", "method": "as §1, §2, §3"}, "[6]": {"target": "kinase named in conditions (Homo sapiens, UniProt O75914)", "sequence (O75914 whole entry)": "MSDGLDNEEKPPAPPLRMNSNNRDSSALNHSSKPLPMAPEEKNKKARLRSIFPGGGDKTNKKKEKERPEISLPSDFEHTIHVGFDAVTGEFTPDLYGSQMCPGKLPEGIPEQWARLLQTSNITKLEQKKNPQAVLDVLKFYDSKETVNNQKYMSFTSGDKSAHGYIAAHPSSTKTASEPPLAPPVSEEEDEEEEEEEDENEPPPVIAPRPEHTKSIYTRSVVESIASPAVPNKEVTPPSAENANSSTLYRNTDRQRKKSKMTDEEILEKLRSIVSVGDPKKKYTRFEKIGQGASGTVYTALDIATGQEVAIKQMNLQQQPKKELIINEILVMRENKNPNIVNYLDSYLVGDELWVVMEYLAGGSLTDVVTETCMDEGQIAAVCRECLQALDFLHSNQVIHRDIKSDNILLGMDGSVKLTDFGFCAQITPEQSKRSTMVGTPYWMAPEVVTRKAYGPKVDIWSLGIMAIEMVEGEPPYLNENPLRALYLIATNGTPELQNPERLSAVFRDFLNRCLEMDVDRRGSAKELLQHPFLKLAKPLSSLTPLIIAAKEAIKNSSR", "details": "PAK3, 10 μM", "method": "as §1, §2, §3"}, "[7]": {"target": "kinase named in conditions (Homo sapiens, UniProt Q52WX2)", "details": "SBK1, 10 μM", "method": "as §1, §2, §3"}, "[8]": {"target": "kinase named in conditions (Homo sapiens, UniProt P07949)", "sequence (P07949 29-1114)": "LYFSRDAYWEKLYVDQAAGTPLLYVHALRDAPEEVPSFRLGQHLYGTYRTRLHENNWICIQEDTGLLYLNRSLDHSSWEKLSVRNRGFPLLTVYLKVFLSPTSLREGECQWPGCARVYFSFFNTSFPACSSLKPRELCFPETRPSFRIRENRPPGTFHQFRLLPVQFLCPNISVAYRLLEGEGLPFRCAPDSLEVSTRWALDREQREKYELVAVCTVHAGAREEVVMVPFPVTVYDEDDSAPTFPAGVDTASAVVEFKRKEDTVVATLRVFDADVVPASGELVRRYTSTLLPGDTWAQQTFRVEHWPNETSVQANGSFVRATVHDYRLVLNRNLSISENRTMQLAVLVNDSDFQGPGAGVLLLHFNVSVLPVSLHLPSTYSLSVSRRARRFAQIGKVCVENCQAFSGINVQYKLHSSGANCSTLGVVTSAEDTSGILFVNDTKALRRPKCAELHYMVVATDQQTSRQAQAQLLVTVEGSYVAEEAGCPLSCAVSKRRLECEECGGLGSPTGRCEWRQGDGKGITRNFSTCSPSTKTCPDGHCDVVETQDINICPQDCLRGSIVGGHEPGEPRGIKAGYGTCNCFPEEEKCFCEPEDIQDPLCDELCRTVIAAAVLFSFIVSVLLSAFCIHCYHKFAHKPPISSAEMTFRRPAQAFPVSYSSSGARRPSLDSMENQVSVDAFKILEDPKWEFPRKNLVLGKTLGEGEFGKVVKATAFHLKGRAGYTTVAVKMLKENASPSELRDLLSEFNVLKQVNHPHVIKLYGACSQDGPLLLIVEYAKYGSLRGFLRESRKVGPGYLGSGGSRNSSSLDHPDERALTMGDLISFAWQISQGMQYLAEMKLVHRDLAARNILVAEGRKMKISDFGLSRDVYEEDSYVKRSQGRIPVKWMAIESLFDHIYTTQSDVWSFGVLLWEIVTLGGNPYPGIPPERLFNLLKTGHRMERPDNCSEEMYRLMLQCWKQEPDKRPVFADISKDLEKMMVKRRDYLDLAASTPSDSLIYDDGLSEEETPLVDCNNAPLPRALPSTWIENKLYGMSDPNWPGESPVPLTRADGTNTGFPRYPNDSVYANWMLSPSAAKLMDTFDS", "details": "RET, 10 μM", "method": "as §1, §2, §3"}, "[9]": {"target": "kinase named in conditions (Homo sapiens, UniProt Q9H1R3)", "details": "MYLK2 (skMLCK), 10 μM", "method": "as §1, §2, §3"}, "[10]": {"target": "kinase named in conditions (Homo sapiens, UniProt P51813)", "sequence (P51813 whole entry)": "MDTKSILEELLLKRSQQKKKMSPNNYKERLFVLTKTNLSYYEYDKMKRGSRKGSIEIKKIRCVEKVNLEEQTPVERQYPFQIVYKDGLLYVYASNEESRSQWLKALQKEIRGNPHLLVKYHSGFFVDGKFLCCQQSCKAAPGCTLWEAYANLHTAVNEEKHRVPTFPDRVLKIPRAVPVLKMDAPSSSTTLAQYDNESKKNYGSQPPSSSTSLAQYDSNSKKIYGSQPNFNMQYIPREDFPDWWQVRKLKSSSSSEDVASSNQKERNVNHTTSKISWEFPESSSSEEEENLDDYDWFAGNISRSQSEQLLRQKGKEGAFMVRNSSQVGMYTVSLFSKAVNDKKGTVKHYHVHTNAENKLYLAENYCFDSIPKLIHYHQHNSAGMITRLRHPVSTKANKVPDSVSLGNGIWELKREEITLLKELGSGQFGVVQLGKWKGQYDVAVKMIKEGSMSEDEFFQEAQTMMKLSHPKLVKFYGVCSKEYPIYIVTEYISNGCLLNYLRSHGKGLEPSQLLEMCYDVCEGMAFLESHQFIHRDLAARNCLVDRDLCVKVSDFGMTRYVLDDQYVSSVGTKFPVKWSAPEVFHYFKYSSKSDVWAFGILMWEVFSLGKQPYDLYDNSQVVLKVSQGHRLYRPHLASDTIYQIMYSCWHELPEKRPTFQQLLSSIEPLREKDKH", "details": "BMX, 10 μM", "method": "as §1, §2, §3"}, "[11]": {"target": "kinase named in conditions (Homo sapiens, UniProt Q13464)", "sequence (Q13464 whole entry)": "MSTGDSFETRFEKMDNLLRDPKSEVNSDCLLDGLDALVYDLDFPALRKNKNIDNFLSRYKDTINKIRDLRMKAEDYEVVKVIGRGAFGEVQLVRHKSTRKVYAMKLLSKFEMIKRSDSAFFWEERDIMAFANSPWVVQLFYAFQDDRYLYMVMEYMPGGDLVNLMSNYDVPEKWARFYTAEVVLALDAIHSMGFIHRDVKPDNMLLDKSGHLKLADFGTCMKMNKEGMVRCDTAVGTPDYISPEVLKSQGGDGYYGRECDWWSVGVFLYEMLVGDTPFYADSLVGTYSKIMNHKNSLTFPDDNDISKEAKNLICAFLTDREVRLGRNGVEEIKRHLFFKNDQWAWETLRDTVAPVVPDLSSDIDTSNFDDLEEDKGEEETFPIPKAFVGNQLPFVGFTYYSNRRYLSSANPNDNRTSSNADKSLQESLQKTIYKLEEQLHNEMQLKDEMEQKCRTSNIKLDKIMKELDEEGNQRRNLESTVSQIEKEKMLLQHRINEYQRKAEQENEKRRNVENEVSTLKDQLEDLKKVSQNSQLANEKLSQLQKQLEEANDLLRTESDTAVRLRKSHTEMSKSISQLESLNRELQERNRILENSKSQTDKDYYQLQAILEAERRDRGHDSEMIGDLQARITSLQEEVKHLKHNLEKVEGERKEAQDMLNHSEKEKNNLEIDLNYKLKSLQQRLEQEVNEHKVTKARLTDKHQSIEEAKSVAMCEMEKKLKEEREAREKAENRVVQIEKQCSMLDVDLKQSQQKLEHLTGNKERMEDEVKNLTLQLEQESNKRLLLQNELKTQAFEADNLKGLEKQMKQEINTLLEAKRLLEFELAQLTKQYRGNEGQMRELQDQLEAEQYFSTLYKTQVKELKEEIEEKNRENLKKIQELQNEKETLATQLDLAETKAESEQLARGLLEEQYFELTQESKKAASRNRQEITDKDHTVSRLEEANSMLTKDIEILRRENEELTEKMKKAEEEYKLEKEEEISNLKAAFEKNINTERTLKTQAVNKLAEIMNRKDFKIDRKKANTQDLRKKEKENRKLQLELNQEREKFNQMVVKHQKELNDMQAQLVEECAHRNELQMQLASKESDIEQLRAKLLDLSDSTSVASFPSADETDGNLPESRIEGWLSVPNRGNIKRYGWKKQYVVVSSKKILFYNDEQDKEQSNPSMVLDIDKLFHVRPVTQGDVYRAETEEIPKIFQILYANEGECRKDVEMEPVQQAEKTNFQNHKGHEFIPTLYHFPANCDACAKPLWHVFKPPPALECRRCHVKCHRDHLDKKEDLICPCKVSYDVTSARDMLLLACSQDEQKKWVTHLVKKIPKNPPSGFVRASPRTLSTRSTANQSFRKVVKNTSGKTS", "details": "ROCK1, 10 μM", "method": "as §1, §2, §3"}, "[12]": {"target": "kinase named in conditions (Homo sapiens, UniProt P45983)", "sequence (P45983 whole entry)": "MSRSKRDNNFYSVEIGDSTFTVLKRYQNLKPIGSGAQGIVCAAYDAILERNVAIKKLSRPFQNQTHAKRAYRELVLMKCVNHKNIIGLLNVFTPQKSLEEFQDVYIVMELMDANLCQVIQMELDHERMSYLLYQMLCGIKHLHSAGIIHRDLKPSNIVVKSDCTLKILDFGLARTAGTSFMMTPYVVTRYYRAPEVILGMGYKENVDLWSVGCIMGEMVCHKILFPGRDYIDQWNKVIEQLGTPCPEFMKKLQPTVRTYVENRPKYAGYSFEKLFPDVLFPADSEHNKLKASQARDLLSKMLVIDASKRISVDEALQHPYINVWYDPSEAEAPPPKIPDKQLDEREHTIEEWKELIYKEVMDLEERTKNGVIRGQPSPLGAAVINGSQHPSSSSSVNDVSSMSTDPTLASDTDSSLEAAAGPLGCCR", "details": "MAPK8 (JNK1), 10 μM", "method": "as §1, §2, §3"}, "[13]": {"target": "kinase named in conditions (Homo sapiens, UniProt Q13627)", "details": "DYRK1A, 10 μM", "method": "as §1, §2, §3"}, "[14]": {"target": "kinase named in conditions (Homo sapiens, UniProt P16234, V561D)", "details": "PDGFRA V561D, 10 μM", "method": "as §1, §2, §3"}, "[15]": {"target": "kinase named in conditions (Homo sapiens, UniProt Q86Z02)", "details": "HIPK1 (Myak), 10 μM", "method": "as §1, §2, §3"}, "[16]": {"target": "kinase named in conditions (Homo sapiens, UniProt Q9UK32)", "sequence (Q9UK32 whole entry)": "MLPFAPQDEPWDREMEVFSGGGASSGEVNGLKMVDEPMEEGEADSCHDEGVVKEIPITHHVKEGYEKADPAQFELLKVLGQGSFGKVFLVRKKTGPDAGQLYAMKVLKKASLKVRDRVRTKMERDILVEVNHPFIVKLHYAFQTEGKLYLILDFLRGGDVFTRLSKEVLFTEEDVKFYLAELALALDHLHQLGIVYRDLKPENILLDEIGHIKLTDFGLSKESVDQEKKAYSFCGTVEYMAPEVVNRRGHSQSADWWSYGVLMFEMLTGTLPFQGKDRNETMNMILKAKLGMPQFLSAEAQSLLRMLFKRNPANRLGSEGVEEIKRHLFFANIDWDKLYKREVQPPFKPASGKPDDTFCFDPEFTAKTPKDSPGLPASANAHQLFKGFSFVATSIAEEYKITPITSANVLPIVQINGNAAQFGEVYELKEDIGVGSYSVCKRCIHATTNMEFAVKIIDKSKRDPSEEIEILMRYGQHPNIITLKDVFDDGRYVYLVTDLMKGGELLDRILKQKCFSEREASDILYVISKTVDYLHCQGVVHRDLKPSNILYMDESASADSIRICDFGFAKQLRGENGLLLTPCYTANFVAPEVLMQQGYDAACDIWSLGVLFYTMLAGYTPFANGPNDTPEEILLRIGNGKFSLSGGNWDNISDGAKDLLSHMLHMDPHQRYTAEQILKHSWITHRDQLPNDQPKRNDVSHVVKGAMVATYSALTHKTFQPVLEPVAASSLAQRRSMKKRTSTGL", "details": "RPS6KA6 (RSK4), 10 μM", "method": "as §1, §2, §3"}, "[17]": {"target": "kinase named in conditions (Homo sapiens, UniProt P17612)", "details": "PRKACA (PKA), 10 μM", "method": "as §1, §2, §3"}, "[18]": {"target": "kinase named in conditions (Homo sapiens, UniProt Q14164)", "details": "IKBKE (IKK epsilon), 10 μM", "method": "as §1, §2, §3"}, "[19]": {"target": "kinase named in conditions (Homo sapiens, UniProt Q9UPE1)", "details": "STK23 (MSSK1), 10 μM", "method": "as §1, §2, §3"}, "[20]": {"target": "kinase named in conditions (Homo sapiens, UniProt Q8N4C8)", "details": "MINK1, 10 μM", "method": "as §1, §2, §3"}, "[21]": {"target": "kinase named in conditions (Homo sapiens, UniProt P36888, D835Y)", "details": "FLT3 D835Y, 10 μM", "method": "as §1, §2, §3"}, "[22]": {"target": "kinase named in conditions (Homo sapiens, UniProt O14965)", "details": "AURKA (Aurora A), 10 μM", "method": "as §1, §2, §3"}, "[23]": {"target": "kinase named in conditions (Homo sapiens, UniProt P00519, E255K)", "details": "ABL1 E255K, 10 μM", "method": "as §1, §2, §3"}, "[24]": {"target": "kinase named in conditions (Homo sapiens, UniProt Q04759)", "details": "PRKCQ (PKC theta), 10 μM", "method": "as §1, §2, §3"}, "[25]": {"target": "kinase named in conditions (Homo sapiens, UniProt P12931)", "details": "SRC, 10 μM", "method": "as §1, §2, §3"}, "[26]": {"target": "kinase named in conditions (Homo sapiens, UniProt Q02156)", "details": "PRKCE (PKC epsilon), 10 μM", "method": "as §1, §2, §3"}, "[27]": {"target": "kinase named in conditions (Homo sapiens, UniProt O75676)", "details": "RPS6KA4 (MSK2), 10 μM", "method": "as §1, §2, §3"}, "[28]": {"target": "kinase named in conditions (Homo sapiens, UniProt O75582)", "details": "RPS6KA5 (MSK1), 10 μM", "method": "as §1, §2, §3"}, "[29]": {"target": "kinase named in conditions (Homo sapiens, UniProt O60674, V617F)", "details": "JAK2 JH1 JH2 V617F, 10 μM", "method": "as §1, §2, §3"}, "[30]": {"target": "kinase named in conditions (Homo sapiens, UniProt Q13043)", "details": "STK4 (MST1), 10 μM", "method": "as §1, §2, §3"}, "[31]": {"target": "kinase named in conditions (Homo sapiens, UniProt P49760)", "details": "CLK2, 10 μM", "method": "as §1, §2, §3"}, "[32]": {"target": "kinase named in conditions (Homo sapiens, UniProt Q8TD19)", "details": "NEK9, 10 μM", "method": "as §1, §2, §3"}, "[33]": {"target": "kinase named in conditions (Homo sapiens, UniProt Q9H4B4)", "details": "PLK3, 10 μM", "method": "as §1, §2, §3"}, "[34]": {"target": "kinase named in conditions (Homo sapiens, UniProt Q8TDC3)", "details": "BRSK1 (SAD1), 10 μM", "method": "as §1, §2, §3"}}}
{"smiles": "FC(F)(F)c1c(Cl)ccc(-n2ccnn2)c1Cl", "note": "[8l, 1-(2,4-Dichloro-3-(trifluoromethyl)phenyl)-1H-1,2,3-triazole]", "values": [{"measurement": "inhibition at 10 µM", "setting": "[1]", "value": 7, "unit": "%"}, {"measurement": "inhibition at 10 µM", "setting": "[2]", "value": 1, "unit": "%"}, {"measurement": "inhibition at 10 µM", "setting": "[3]", "value": 8, "unit": "%"}, {"measurement": "inhibition at 10 µM", "setting": "[4]", "value": 15, "unit": "%"}, {"measurement": "inhibition at 10 µM", "setting": "[5]", "value": -4, "unit": "%"}, {"measurement": "inhibition at 10 µM", "setting": "[6]", "value": 8, "unit": "%"}, {"measurement": "inhibition at 10 µM", "setting": "[7]", "value": 2, "unit": "%"}, {"measurement": "inhibition at 10 µM", "setting": "[8]", "value": 7, "unit": "%"}, {"measurement": "inhibition at 10 µM", "setting": "[9]", "value": 15, "unit": "%"}, {"measurement": "inhibition at 10 µM", "setting": "[10]", "value": 7, "unit": "%"}, {"measurement": "inhibition at 10 µM", "setting": "[11]", "value": 8, "unit": "%"}, {"measurement": "inhibition at 10 µM", "setting": "[12]", "value": 6, "unit": "%"}, {"measurement": "inhibition at 10 µM", "setting": "[13]", "value": 0, "unit": "%"}, {"measurement": "inhibition at 10 µM", "setting": "[14]", "value": -3, "unit": "%"}, {"measurement": "inhibition at 10 µM", "setting": "[15]", "value": 2, "unit": "%"}, {"measurement": "inhibition at 10 µM", "setting": "[16]", "value": 0, "unit": "%"}, {"measurement": "inhibition at 10 µM", "setting": "[17]", "value": 0, "unit": "%"}, {"measurement": "inhibition at 10 µM", "setting": "[18]", "value": 11, "unit": "%"}, {"measurement": "inhibition at 10 µM", "setting": "[19]", "value": 0, "unit": "%"}, {"measurement": "inhibition at 10 µM", "setting": "[20]", "value": 14, "unit": "%"}, {"measurement": "inhibition at 10 µM", "setting": "[21]", "value": 3, "unit": "%"}, {"measurement": "inhibition at 10 µM", "setting": "[22]", "value": 4, "unit": "%"}, {"measurement": "inhibition at 10 µM", "setting": "[23]", "value": 13, "unit": "%"}, {"measurement": "inhibition at 10 µM", "setting": "[24]", "value": -11, "unit": "%"}, {"measurement": "inhibition at 10 µM", "setting": "[25]", "value": 6, "unit": "%"}, {"measurement": "inhibition at 10 µM", "setting": "[26]", "value": -1, "unit": "%"}, {"measurement": "inhibition at 10 µM", "setting": "[27]", "value": 1, "unit": "%"}, {"measurement": "inhibition at 10 µM", "setting": "[28]", "value": 9, "unit": "%"}, {"measurement": "inhibition at 10 µM", "setting": "[29]", "value": -4, "unit": "%"}, {"measurement": "inhibition at 10 µM", "setting": "[30]", "value": 1, "unit": "%"}, {"measurement": "inhibition at 10 µM", "setting": "[31]", "value": 18, "unit": "%"}, {"measurement": "inhibition at 10 µM", "setting": "[32]", "value": -3, "unit": "%"}, {"measurement": "inhibition at 10 µM", "setting": "[33]", "value": 5, "unit": "%"}, {"measurement": "inhibition at 10 µM", "setting": "[34]", "value": 0, "unit": "%"}]}
